Assay results: PubChem BioAssay AID1259407 (Chemical Carcinogenesis Research Information System (CCRIS), 2018)
Calls of active or inactive are those of the source. The rule behind the calls is not given here.

Tested on: CCRIS mutagenicity, Ames/micronucleus/aberration tests
Assay: CCRIS mutagenicity studies
[1] = Test System: AMES SALMONELLA TYPHIMURIUM, Strain/Indicator: TA98, Metabolic Activation: NONE, Method: STANDARD PLATE
[2] = Test System: AMES SALMONELLA TYPHIMURIUM, Strain/Indicator: TA100, Metabolic Activation: NONE, Method: STANDARD PLATE
[3] = Test System: AMES SALMONELLA TYPHIMURIUM, Strain/Indicator: TA97, Metabolic Activation: NONE, Method: PREINCUBATION
[4] = Test System: AMES SALMONELLA TYPHIMURIUM, Strain/Indicator: TA98, Metabolic Activation: HAMSTER, LIVER, S-9, AROCLOR 1254 (10%), Method: PREINCUBATION
[5] = Test System: AMES SALMONELLA TYPHIMURIUM, Strain/Indicator: TA98, Metabolic Activation: NONE, Method: PREINCUBATION
[6] = Test System: AMES SALMONELLA TYPHIMURIUM, Strain/Indicator: TA98, Metabolic Activation: RAT, LIVER, S-9, AROCLOR 1254 (10%), Method: PREINCUBATION
[7] = Test System: AMES SALMONELLA TYPHIMURIUM, Strain/Indicator: TA100, Metabolic Activation: NONE, Method: PREINCUBATION
[8] = Test System: AMES SALMONELLA TYPHIMURIUM, Strain/Indicator: TA100, Metabolic Activation: RAT, LIVER, S-9, AROCLOR 1254 (10%), Method: PREINCUBATION
[9] = Test System: AMES SALMONELLA TYPHIMURIUM, Strain/Indicator: TA1535, Metabolic Activation: HAMSTER, LIVER, S-9, AROCLOR 1254 (10%), Method: PREINCUBATION
[10] = Test System: AMES SALMONELLA TYPHIMURIUM, Strain/Indicator: TA1535, Metabolic Activation: NONE, Method: PREINCUBATION
[11] = Test System: AMES SALMONELLA TYPHIMURIUM, Strain/Indicator: TA1535, Metabolic Activation: RAT, LIVER, S-9, AROCLOR 1254 (10%), Method: PREINCUBATION

Cc1cc2c3ccccc3cc3ccc4cccc1c4c32
mutagenic call (Test System: AMES SALMONELLA TYPHIMURIUM, Strain/Indicator: TA100, Metabolic Activation: RAT, INTACT HEPATOCYTES, AROCLOR 1254, Method: PREINCUBATION): active; positive
mutagenic call (Test System: AMES SALMONELLA TYPHIMURIUM, Strain/Indicator: TA100, Metabolic Activation: RAT, NADPH-FORTIFIED HOMOGENIZED HEPATOCYTES, AROCLOR 1254, Method: PREINCUBATION): active; positive

Cc1c(/C=N/OCc2ccc(Cl)cc2)c2cc([N+](=O)[O-])ccc2n1Cc1ccccc1
mutagenic call [1]: inactive; negative
mutagenic call (Test System: AMES SALMONELLA TYPHIMURIUM, Strain/Indicator: TA98, Metabolic Activation: RAT, LIVER, S-9, PHENOBARBITAL AND BETA-NAPHTHOFLAVONE, Method: STANDARD PLATE): inactive; negative
mutagenic call [2]: inactive; negative
mutagenic call (Test System: AMES SALMONELLA TYPHIMURIUM, Strain/Indicator: TA100, Metabolic Activation: RAT, LIVER, S-9, PHENOBARBITAL AND BETA-NAPHTHOFLAVONE, Method: STANDARD PLATE): inactive; negative

OCCCCl
mutagenic call (Test System: AMES SALMONELLA TYPHIMURIUM, Strain/Indicator: TA97, Metabolic Activation: HAMSTER, LIVER, S-9, AROCLOR 1254 (10%), Method: PREINCUBATION): inactive; negative
mutagenic call [3]: inactive; negative
mutagenic call (Test System: AMES SALMONELLA TYPHIMURIUM, Strain/Indicator: TA97, Metabolic Activation: RAT, LIVER, S-9, AROCLOR 1254 (10%), Method: PREINCUBATION): inactive; negative
mutagenic call [4]: inactive; negative
mutagenic call [5]: inactive; negative
mutagenic call [6]: inactive; negative
mutagenic call (Test System: AMES SALMONELLA TYPHIMURIUM, Strain/Indicator: TA100, Metabolic Activation: HAMSTER, LIVER, S-9, AROCLOR 1254 (10%), Method: PREINCUBATION): inactive; negative
mutagenic call [7]: inactive; negative
mutagenic call [8]: inactive; negative
mutagenic call [9]: active; positive
mutagenic call [10]: inactive; negative
mutagenic call [11]: active; positive

CN(N=O)C(=O)c1c(N(C)C(=O)OC(C)(C)C)ncn1C
mutagenic call [1]: inactive; negative
mutagenic call (Test System: AMES SALMONELLA TYPHIMURIUM, Strain/Indicator: TA98, Metabolic Activation: S-9, Method: STANDARD PLATE): inactive; negative
mutagenic call [2]: active; positive
mutagenic call (Test System: AMES SALMONELLA TYPHIMURIUM, Strain/Indicator: TA100, Metabolic Activation: S-9, Method: STANDARD PLATE): active; positive
mutagenic call (Test System: AMES SALMONELLA TYPHIMURIUM, Strain/Indicator: TA102, Metabolic Activation: NONE, Method: STANDARD PLATE): inactive; negative
mutagenic call (Test System: AMES SALMONELLA TYPHIMURIUM, Strain/Indicator: TA102, Metabolic Activation: S-9, Method: STANDARD PLATE): active; positive
mutagenic call (Test System: AMES SALMONELLA TYPHIMURIUM, Strain/Indicator: TA1535, Metabolic Activation: NONE, Method: STANDARD PLATE): active; positive
mutagenic call (Test System: AMES SALMONELLA TYPHIMURIUM, Strain/Indicator: TA1535, Metabolic Activation: S-9, Method: STANDARD PLATE): active; positive
mutagenic call (Test System: AMES SALMONELLA TYPHIMURIUM, Strain/Indicator: TA1537, Metabolic Activation: NONE, Method: STANDARD PLATE): inactive; negative
mutagenic call (Test System: AMES SALMONELLA TYPHIMURIUM, Strain/Indicator: TA1537, Metabolic Activation: S-9, Method: STANDARD PLATE): inactive; negative

C=C1C/C(=C/C)C(=O)O[C@@H]2CCN3CC=C(COC(=O)[C@]1(C)O)[C@H]23
mutagenic call (Test System: AMES SALMONELLA TYPHIMURIUM, Strain/Indicator: TA97, Metabolic Activation: HAMSTER, LIVER, S-9, AROCLOR 1254 (5, 10 OR 30%), Method: PREINCUBATION): inactive; negative
mutagenic call [3]: inactive; negative
mutagenic call (Test System: AMES SALMONELLA TYPHIMURIUM, Strain/Indicator: TA97, Metabolic Activation: RAT, LIVER, S-9, AROCLOR 1254 (5, 10 OR 30%), Method: PREINCUBATION): inactive; negative
mutagenic call [4]: inactive; negative
mutagenic call [5]: inactive; negative
mutagenic call [6]: inactive; negative
mutagenic call (Test System: AMES SALMONELLA TYPHIMURIUM, Strain/Indicator: TA100, Metabolic Activation: HAMSTER, LIVER, S-9, AROCLOR 1254 (5%), Method: PREINCUBATION): inactive; negative
mutagenic call (Test System: AMES SALMONELLA TYPHIMURIUM, Strain/Indicator: TA100, Metabolic Activation: HAMSTER, LIVER, S-9, AROCLOR 1254 (10 OR 30%), Method: PREINCUBATION): active; positive
mutagenic call (Test System: AMES SALMONELLA TYPHIMURIUM, Strain/Indicator: TA100, Metabolic Activation: HAMSTER, LIVER, S-9, PCB, Method: PREINCUBATION): inactive; negative
mutagenic call [7]: inactive; negative
mutagenic call (Test System: AMES SALMONELLA TYPHIMURIUM, Strain/Indicator: TA100, Metabolic Activation: RAT, LIVER, S-9, AROCLOR 1254 (5 OR 30%), Method: PREINCUBATION): inactive; negative
mutagenic call [8]: inactive; negative
mutagenic call (Test System: AMES SALMONELLA TYPHIMURIUM, Strain/Indicator: TA100, Metabolic Activation: RAT, LIVER, S-9, PCB, Method: PREINCUBATION): inactive; negative
mutagenic call (Test System: AMES SALMONELLA TYPHIMURIUM, Strain/Indicator: TA100, Metabolic Activation: RAT, LIVER, S-9, SODIUM PHENOBARBITAL AND BETA-NAPHTHOFLAVONE, Method: PREINCUBATION): inactive; negative
mutagenic call [9]: inactive; negative
mutagenic call [10]: inactive; negative
mutagenic call [11]: inactive; negative
mutagenic call (Test System: UDS HAMSTER HEPATOCYTES, Strain/Indicator: THY INCORP, Metabolic Activation: NONE, Method: AUTORADIOGRAPHY): active; positive
mutagenic call (Test System: UDS MOUSE HEPATOCYTES, Strain/Indicator: THY INCORP, Metabolic Activation: NONE, Method: AUTORADIOGRAPHY): active; positive
mutagenic call (Test System: UDS RAT HEPATOCYTES, Strain/Indicator: THY INCORP, Metabolic Activation: NONE, Method: AUTORADIOGRAPHY): active; positive

CCCCN(CCC)N=O
mutagenic call (Test System: AMES SALMONELLA TYPHIMURIUM, Strain/Indicator: TA100, Metabolic Activation: RAT, LIVER, S-9, KC500 OR PHENOBARBITAL, Method: LIQUID SUSPENSION): active; positive
mutagenic call (Test System: MOUSE LYMPHOMA, Strain/Indicator: L5178Y (TK+/TK-), Metabolic Activation: RAT, LIVER, S-9, AROCLOR 1254, Method: SUSPENSION/PLATE): active; positive
